Data on 18 compounds can be found in paper PMC8972196, “A Set of Experimentally Validated Decoys for the Human CC Chemokine Receptor 7 (CCR7) Obtained by Virtual Screening” (Frontiers in Pharmacology, 2022).

Like-named read-outs stand apart in the source and are kept apart here.

The target of the test is T1, human CCR7 (Homo sapiens, UniProt P32248).
T1 construct: expressed in transfected cells
T1 sequence (P32248 25-378): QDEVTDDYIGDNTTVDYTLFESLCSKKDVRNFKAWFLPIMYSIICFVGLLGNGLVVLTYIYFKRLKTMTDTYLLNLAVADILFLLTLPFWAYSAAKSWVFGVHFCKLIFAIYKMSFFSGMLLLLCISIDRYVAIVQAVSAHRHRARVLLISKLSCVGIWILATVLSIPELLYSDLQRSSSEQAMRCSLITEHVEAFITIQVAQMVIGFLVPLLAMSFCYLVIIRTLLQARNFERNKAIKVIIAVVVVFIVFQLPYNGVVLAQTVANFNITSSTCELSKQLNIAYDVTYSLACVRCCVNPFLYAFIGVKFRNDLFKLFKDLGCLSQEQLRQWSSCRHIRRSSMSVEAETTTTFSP
The test can be described thus: CCL19-induced calcium mobilization assay, U87.CD4 cells expressing CCR7. The class given is cell-based. Conditions: for IC50: read-out: IC50 [μM] block CCL19 induced calcium signaling. Summed up:
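Calcium mobilization was recorded in U87.CD4 cells stably carrying human CXCR2 (stimulated with CXCL8), CCR7 (stimulated with CCL19) or CCR5. Cells were plated at 20,000 cells/well, cultured overnight at 37°C in 5% CO2, and incubated 45 min at room temperature in the dark before reading.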

The mark [1] stands for this setting: CCL19-induced calcium signaling.
Where [2] appears, read: classification of tested compounds as decoy or active.
[3] abbreviates: CCL19 induced calcium signaling.
[4] abbreviates: classification as decoy or active on CCR7.

One may read the IC50 as the concentration at which inhibition is half-maximal. In the case of `CC(C)[C@@H](NC(=O)c1cccc(NC(=O)C2CC2)c1)c1ccccn1` [C155, CC(C)[C@@H](NC(=O)c1cccc(NC(=O)C2CC2)c1)c1ccccn1], under setting [1], the half-inhibitory concentration (IC50) is greater than 50 µM. Under setting [2], the “Decoy – 0 Active – 1” value was 0.
In the same order, the values of `CC[C@@H](NC1=NS(=O)(=O)c2ccccc21)C(=O)NOC` [C156, CC[C@@H](NC1=NS(=O)(=O)c2ccccc21)C(=O)NOC] are greater than 50 µM and 0.
Take `CNC(=O)[C@H](NC1=NS(=O)(=O)c2ccccc21)C(C)C` [C157, CNC(=O)[C@H](NC1=NS(=O)(=O)c2ccccc21)C(C)C]: the IC50 under setting [1] is greater than 50 µM. Further, the “Decoy – 0 Active – 1” value under setting [2] is 0.
In the case of `COC(=O)c1ccc([C@H]2CC(=O)Nc3c2cnn3Cc2ccco2)cc1` [C158, COC(=O)c1ccc([C@H]2CC(=O)Nc3c2cnn3Cc2ccco2)cc1], the IC50 under setting [1] was greater than 50 µM. For the same compound, the “Decoy – 0 Active – 1” value under setting [2] is on record as 0.
For the compound `CC[C@@H](NC(=O)c1cc(-c2cccc(OC)c2)n[nH]1)c1nc(C)c(C)s1` [C159, CC[C@@H](NC(=O)c1cc(-c2cccc(OC)c2)n[nH]1)c1nc(C)c(C)s1], the IC50 under setting [3] is greater than 50 µM. Further, the “Decoy – 0 Active – 1” value under setting [4] worked out at 0.
On to `Cn1nc(C(=O)N[C@@H]2CCCC[C@@H]2Cc2ccccc2)ccc1=O` [C160, Cn1nc(C(=O)N[C@@H]2CCCC[C@@H]2Cc2ccccc2)ccc1=O], for which the IC50 under setting [3] was greater than 50 µM. Further, the “Decoy – 0 Active – 1” value under setting [4] was 0.
As to `CC[C@@H](NC(=O)N1CCN(C(=O)c2ccccc2)CC1)c1cccc(C)n1` [C161, CC[C@@H](NC(=O)N1CCN(C(=O)c2ccccc2)CC1)c1cccc(C)n1], under setting [3], the IC50 was greater than 50 µM. Further, the “Decoy – 0 Active – 1” value under setting [4] was 0.
In the same order, the values of `Cc1cc(NCCn2cccn2)c2ccc(C(F)(F)F)cc2n1` [C162, Cc1cc(NCCn2cccn2)c2ccc(C(F)(F)F)cc2[nH+]1] are greater than 50 µM and 0.
In the case of `CC[C@H](NC(=O)N(CCO)Cc1ccc(F)cc1)c1nc(C)no1` [C163, CC[C@H](NC(=O)N(CCO)Cc1ccc(F)cc1)c1nc(C)no1], the IC50 under setting [3] was greater than 50 µM. Besides, under setting [4], the “Decoy – 0 Active – 1” value is 0.
As for `COc1ccc(O)c(/C=C(\C#N)C(=O)Nc2cccc(Cl)c2Cl)c1` [C164, COc1ccc(O)c(/C=C(\C#N)C(=O)Nc2cccc(Cl)c2Cl)c1], the IC50 under setting [3] was greater than 50 µM. Under setting [4], the “Decoy – 0 Active – 1” value came out at 0.
In the same order, the values of `CCC1(C(N)=O)CCCN(C(=O)NCc2c(Cl)cccc2Cl)C1` (stereo not drawn) [C165, CCC1(C(N)=O)CCCN(C(=O)NCc2c(Cl)cccc2Cl)C1] are greater than 50 µM and 0.
`O=C(NCC(C1CC1)C1CC1)N1CCC(O)(C(F)(F)F)CC1` [C166, O=C(NCC(C1CC1)C1CC1)N1CCC(O)(C(F)(F)F)CC1]: under setting [3], the half-inhibitory concentration (IC50) was greater than 50 µM. For the same compound, the “Decoy – 0 Active – 1” value under setting [4] was determined as 0.
Taken in the same sequence, the figures for `Cc1oc2ccccc2c1CNC(=O)N1CCC(C)(CO)CC1` [C167, Cc1oc2ccccc2c1CNC(=O)N1CCC(C)(CO)CC1] were greater than 50 µM and 0.
Taken in the same sequence, the figures for `CC(C)C1(CO)CCCN(C(=O)NCc2ccc(Cl)cc2F)C1` (stereo not drawn) [C168, CC(C)C1(CO)CCCN(C(=O)NCc2ccc(Cl)cc2F)C1] were greater than 50 µM and 0.
Taken in the same sequence, the figures for `CC(C)Oc1ccc2ccccc2c1CNC(=O)N1CCC(C)(O)C1` (stereo not drawn) [C169, CC(C)Oc1ccc2ccccc2c1CNC(=O)N1CCC(C)(O)C1] were greater than 50 µM and 0.
Turning to `Cc1ccccc1NC(=O)c1c(O)nc2ccccc2c1O` [C170, Cc1ccccc1NC(=O)c1c(O)nc2ccccc2c1O], the IC50 under setting [3] was greater than 50 µM. The “Decoy – 0 Active – 1” value under setting [4] was 0.
Turning to `CN(Cc1ccccc1Cl)C(C(=O)O)c1ccc(F)c(CO)c1` (stereo not drawn) [C171, C[NH+](Cc1ccccc1Cl)C(C(=O)[O-])c1ccc(F)c(CO)c1], the IC50 under setting [3] was greater than 50 µM. For the same compound, the “Decoy – 0 Active – 1” value under setting [4] worked out at 0.
On to `Cc1noc(C)c1CNC(=O)COc1ccccc1CO` [C172, Cc1noc(C)c1CNC(=O)COc1ccccc1CO], for which the IC50 under setting [3] was greater than 50 µM. Under setting [4], the “Decoy – 0 Active – 1” value is on record as 0.
